Results taken from article PMC8151276, “An Integrated Approach toward NanoBRET Tracers for Analysis of GPCR Ligand Engagement” (Molecules, 2021).

Assays:
ADRB3 = target: T1, ADRB3 (Homo sapiens, UniProt P13945); assay: NanoBRET screen HiBiT-ADRB3 in HEK293; format: binding; details: ADRB3
T1 construct: purchased Promega (in-house HiBiT-GPCR construct library, NanoBRET)
Experimental: (§1) Each tracer candidate was screened across the entire library of HiBiT-GPCR constructs using NanoBRET as the detection modality. As depicted in Figure 4A, the specificity of interactions was evaluated through decrease in BRET due to competitive displacement of a bound tracer by excess parental compound. Each tracer was analyzed for binding to each HiBiT-GPCR fusion in the absence and in the presence of competing parental compound. Briefly, HEK293 cells were transfected with HiBiT-GPCR constructs diluted into promoterless DNA to reduce expression and maximize translocation to the cell surface. Each tracer candidate was then screened at concentrations of 1 μM and 0.1 μM across cells expressing these fusions. Cells were treated for 1.5 h with tracer either alone or in the presence of 20 μM competing parental compound (i.e., control). BRET was measured upon addition of purified LgBiT and subsequent complementation with HiBiT genetically fused to a GPCR. The specificity of interactions was assessed through a decrease in BRET signal due to competitive displacement of the bound tracer. To further gauge the robustness of these interactions, the fold response over the control (i.e., BRETtracer/BRETcontrol) was calculated. We chose a 1.5-fold response, which translates to ≥7-fold signal over noise as the minimal threshold required to score an interaction as positive.
(§2) HiBiT-GPCR DNA constructs were diluted in 10 mM Tris pH 8 to a final concentration of 0.01 μg/μL, arrayed in 96-well plates and stored at −20 °C. For transfection, HEK293 cells were suspended in Opti-MEM (without phenol red) supplemented with 2% fetal bovine serum (Seradigm) and 100 units/mL penicillin–streptomycin (Gibco) at a final concentration of 220,000 cells/mL and dispensed into white 96-well plates at 90 μL/well. Subsequent transfections and screens were carried using an Agilent Bravo Automated Liquid Handling Platform. First, the 96-well HiBiT DNA arrays were diluted 25-fold in Opti-MEM (without serum or phenol red) to a final concentration of 0.0004 μg/μL and 20 μL of the diluted DNAs were transferred into new 96-well plates. Next, promoterless carrier DNA (1 μg/μL) was diluted 25-fold (0.04 μg/μL) and then dispensed into the diluted arrays at 20 μL/well. Following brief mixing, Viafect transfection reagent (Promega) diluted 16-fold into Opti-MEM was dispensed into the plates at 40 μL/well. After mixing by pipetting, plates were incubated for 10 min on the pipetting station deck. The DNA-transfection reagent complexes were then added to plates containing cells. To facilitate the screen, 10 μL of DNA-transfection reagent complexes were added in duplicates to the top 4 and bottom 4 rows, resulting in two identical 48-well arrays per plate. Plates with transfected cells were incubated for 18–20 h at 37 °C/5% CO2. A screen of each tracer across the entire library using two different concentrations requires duplicate plates of transfected cells. Depending on the number of tracers being screened, transfections can be scaled up using the same ratios. The next day, for each tracer, four 20× screening solutions in tracer dilution buffer (Promega) were prepared: two duplicates at final concentration of 20 μM and two duplicates at a final concentration of 2 μM. […] The four resulting solutions were diluted 4-fold in Opti-MEM without serum or phenol red to generate 5× solutions (5 µM and 0.5 µM tracer +/− 100 μM competing compound). To screen the library, a BioTek MultiFlo FX liquid dispenser was used to dispense 22.5 µL of tracer solution to the top 4 rows and 22.5 µL tracer + competing compound solution to the 4 bottom rows. Plates were briefly mixed on an orbital shaker and incubated for 1.5 h at room temperature. […] Plates were briefly mixed on an orbital shaker and incubated for 15 min to allow complementation.

HTR1F = target: T2, HTR1F (Homo sapiens, UniProt P30939); assay: NanoBRET screen HiBiT-HTR1F in HEK293; format: binding; details: HTR1F
T2 construct: purchased Promega (in-house HiBiT-GPCR construct library, NanoBRET)
T2 sequence (P30939 1-366): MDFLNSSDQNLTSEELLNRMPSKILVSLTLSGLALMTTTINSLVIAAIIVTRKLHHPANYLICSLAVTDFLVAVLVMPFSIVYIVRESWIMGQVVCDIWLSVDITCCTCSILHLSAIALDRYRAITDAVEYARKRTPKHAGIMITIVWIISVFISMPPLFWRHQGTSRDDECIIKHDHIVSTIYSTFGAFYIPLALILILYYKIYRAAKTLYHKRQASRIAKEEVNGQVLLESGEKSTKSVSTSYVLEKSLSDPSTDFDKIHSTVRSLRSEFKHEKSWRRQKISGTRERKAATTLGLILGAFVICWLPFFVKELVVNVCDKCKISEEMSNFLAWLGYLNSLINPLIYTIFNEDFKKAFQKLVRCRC
Experimental: as §1, §2

T1 sequence (P13945 whole entry): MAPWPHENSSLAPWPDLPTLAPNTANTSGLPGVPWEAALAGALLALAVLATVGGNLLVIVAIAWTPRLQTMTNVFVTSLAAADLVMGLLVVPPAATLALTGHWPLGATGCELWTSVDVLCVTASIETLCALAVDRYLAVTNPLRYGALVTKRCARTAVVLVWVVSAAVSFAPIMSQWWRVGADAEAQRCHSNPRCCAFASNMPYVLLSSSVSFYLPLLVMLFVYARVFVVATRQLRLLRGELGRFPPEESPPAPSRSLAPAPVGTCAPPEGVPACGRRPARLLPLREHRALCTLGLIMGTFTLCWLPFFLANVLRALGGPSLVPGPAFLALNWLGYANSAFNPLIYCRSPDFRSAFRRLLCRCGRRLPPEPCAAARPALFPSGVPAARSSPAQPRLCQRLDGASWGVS

SMILES	NanoBRET Fold Response (ADRB3; tracer 0.1μM)	NanoBRET Fold Response (ADRB3; tracer 1μM)	NanoBRET Fold Response (HTR1F; tracer 0.1μM)	NanoBRET Fold Response (HTR1F; tracer 1μM)	also measured
CN1CCN(C2=Nc3cc(Cl)ccc3N(CC(=O)NCCOCCOCCOCCOCCNC(=O)CCc3ccc4n3[B-](F)(F)[N+]3=C(c5ccc[nH]5)C=CC3=C4)c3ccccc32)CC1 [Clozapine-c-2-NB590]	–	–	–	–	NanoBRET Fold Response (ADRB3; 0.1μM tracer): 0.98; NanoBRET Fold Response (ADRB3; 1μM tracer): 0.96; NanoBRET Fold Response (HTR1F; 0.1μM tracer): 1.02; NanoBRET Fold Response (HTR1F; 1μM tracer): 0.91
O=C(CCOCCOCCOCCOCCNC(=O)CCc1ccc2n1[B-](F)(F)[N+]1=C(c3ccc[nH]3)C=CC1=C2)NCCCN1CCN(C2=Nc3ccccc3Oc3ccc(Cl)cc32)CC1 [Loxapine-a-2-NB590]	1.01	0.93	1.01	1.07	–
COc1ccccc1N1CCN(CCCCN2C(=O)c3ccc(CNC(=O)CCOCCOCCOCCOCCNC(=O)CCc4ccc5n4[B-](F)(F)[N+]4=C(c6ccc[nH]6)C=CC4=C5)cc3C2=O)CC1 [NAN-190-2-NB590]	0.98	–	1.29	2.39	–
COc1ccccc1N1CCN(CCCCN2C(=O)c3ccc(CNC(=O)CCOCCNC(=O)c4ccc(CNC(=O)CCc5ccc6n5[B-](F)(F)[N+]5=C(c7ccc[nH]7)C=CC5=C6)cc4)cc3C2=O)CC1 [NAN-190-3-NB590]	1.03	0.92	2.92	1.93	–
O=C(CCc1ccc2n1[B-](F)(F)[N+]1=C(c3ccc[nH]3)C=CC1=C2)NCc1ccc(C(=O)NCCOCCC(=O)N[C@@H]2CC[C@@]3(O)[C@H]4Cc5ccc(O)c6c5[C@@]3(CCN4CC3CC3)[C@H]2O6)cc1 [Naltrexone-3-NB590]	0.99	1.02	1.35	1.30	–
Cc1cc2c(s1)Nc1ccccc1N=C2N1CCN(CCCNC(=O)CCOCCOCCOCCOCCNC(=O)CCc2ccc3n2[B-](F)(F)[N+]2=C(c4ccc[nH]4)C=CC2=C3)CC1 [Olanzapine-a-2-NB590]	1.05	0.89	1.01	1.21	–
O=C(CCc1ccc2n1[B-](F)(F)[N+]1=C(c3ccc[nH]3)C=CC1=C2)NCc1ccc(C(=O)NCCOCCOCCNCC(O)COc2cccc3ccccc23)cc1 (stereo not drawn) [Propranolol-3-NB590]	–	–	–	–	NanoBRET Fold Response (ADRB3; 0.1μM): 1.47; NanoBRET Fold Response (ADRB3; 1μM): 1.17; NanoBRET Fold Response (HTR1F; 0.1μM): 1.08; NanoBRET Fold Response (HTR1F; 1μM): 0.99
O=C(CCc1ccc2n1[B-](F)(F)[N+]1=C(c3ccc[nH]3)C=CC1=C2)NCCOCCOCCNC(=O)OCCOCCN1CCN(C2=Nc3ccccc3Sc3ccccc32)CC1 [Quetiapine-a-2-NB590]	1.08	0.99	1.01	0.95	–
Cc1nc2n(c(=O)c1CCN1CCC(c3noc4cc(F)ccc34)CC1)CCCC2OC(=O)NCCOCCOCCOCCOCCNC(=O)CCc1ccc2n1[B-](F)(F)[N+]1=C(c3ccc[nH]3)C=CC1=C2 (stereo not drawn) [Risperidone-2-NB590]	0.98	1.01	0.98	1.07	–
CC(C)N(CC[C@H](c1ccccc1)c1cc(CCNC(=O)CCOCCOCCOCCOCCNC(=O)CCc2ccc3n2[B-](F)(F)[N+]2=C(c4ccc[nH]4)C=CC2=C3)ccc1O)C(C)C [Tolterodine-2-NB590]	0.97	0.97	0.90	1.13	–
